The values that follow are results of earlier work, collected in article PMC4584145 (Antiviral chemistry & chemotherapy, 2011).

Data set [1] deals with N-HR of HIV-1 gp41. The settings on record: ELISA; N-HR containing amino acid positions 18 to 73. A general note: An ELISA detects its analyte on a solid surface through an enzyme-linked reagent.
For data set [2], the system named is 5-helix complex (three N-HRs and two C-HRs).

“C34: representative C-HR-derived peptide that inhibits HIV-1 fusion to host cells”: the “binding to the N-HR” value in data set [1] was “binds strongly”.
For the substance Enfuvirtide [T20], in data set [1], the “binding to the N-HR” value was “binds weakly”. In addition, the “interaction with artificial 5-helix complex” value in data set [2] was “much weaker than that between C34 and the complex”.
